Test system: laminin 5
Test: Laminin 5 productivity evaluation test (keratinocyte culture, sandwich ELISA)
Type: cell-based, human
Details: for laminin 5 productivity potentiating action: result in words
Experimental: (1) Culture of Keratinocytes
Keratinocytes were isolated from the human preputium and cultured in an epidermal cell growth medium (KGM) having a low calcium concentration. To this culture medium were added bovine pituitary extract and EGF. After cultivation in KGM up to the fourth generation, the cells were treated with trypsin and EDTA to suspend adherent cells. Then, the culture was filtered to remove cell aggregates and thereby to obtain a homogeneous cell suspension. The cells were collected by centrifugation and resuspended in DMEM-F12 (2:I)-0.1% BSA so as to give a cell density of8×10^4 per ml. Each 0.5 ml of this cell suspension was added to 0.5 ml of the same medium containing a twofold concentration of each test sample. Using a 24-well plate, incubation was carried out at 37° C. for 24 hours. After completion of the incubation, the culture supernatant was transferred to an Eppendorf tube and centrifuged at 10,000 rpm for 5 minutes. The supernatant was transferred to a new tube and stored at −20° C. till the day for the determination of laminin 5. In order to solubilize laminin 5 in the cells and that bound to the culture plastics, a tris-HCl buffer (pH 7.4) containing various surfactants was added to each well and allowed to stand at −20° C. overnight. On the following day, the mixture was ultrasonicated and frozen again. On the following day, the mixture was thawed again and centrifuged at 10,000 rpm for 5 minutes. The supernatant was transferred to a tube and stored at −20° C. till the day for the determination of laminin 5.
(2) Determination of Laminin 5 by the Sandwich ELISA Method
Laminin 5 present in the culture supernatant and the cell layer was determined by the sandwich ELISA method. A monoclonal antibody (BM165) to the laminin α3 chain of laminin 5 was attached to a solid layer of a 96-well ELISA plate. In order to determine laminin 5 in sandwiched manner, a monoclonal antibody (6F12) to the laminin β3 chain was previously biotinized (b-6F12) and used as the other antibody. […] A sample was added to each of the wells in which a 3% gelatin-phosphate buffer solution containing b-6F12 had previously been placed. The final dilution ratio of the sample in the wells was ¼ for the culture medium and 1/10 for the cell layer. After the antigen-antibody reaction was carried out at 37° C. for 2 hours, the plate was washed, and an avidin HRP (horseradish peroxidase) solution was added thereto and reacted for a period of 30 minutes to 1 hour. After washing, a solution of ABTS serving as a substrate for HRP was added thereto and the absorbance at 405 nm was measured with an ELISA plate reader. A calibration curve was constructed over a range of 0 to 40 ng/ml.
The sum of the laminin 5 liberated into the culture medium and that remaining in the cell layer was calculated. The yield of laminin 5 was expressed by the relative value to that of the sample to which none of the plant extracts was added (control).

[1] = Table 3 (comparative example), concentration 1 μM
[2] = Table 3 (comparative example), concentration 10 μM
[3] = Table 3 (comparative example), concentration 100 μM

| Compound | Laminin 5 yield (%) Relative to the Control (Table 2, concentration 1 μM) [%] | Laminin 5 yield (%) Relative to the Control (Table 2, concentration 10 μM) [%] | laminin 5 productivity potentiating action | Laminin 5 yield (%) Relative to the Control (Table 2, concentration 0.1 μM) [%] | Laminin 5 yield (%) Relative to the Control [1] [%] | Laminin 5 yield (%) Relative to the Control [2] [%] | Laminin 5 yield (%) Relative to the Control [3] [%] |
| --- | --- | --- | --- | --- | --- | --- | --- |
| C[C@H]1[C@H](C)CC[C@]2(C)CC[C@]3(C)C4=C(CC[C@@]3(C)[C@H]12)[C@@]1(C)CC[C@H](O)C(C)(C)C1CC4 (stereo partly drawn) [Isobauerenol, isobauerenol] | 132 | 137 | exhibiting laminin 5 productivity potentiating action | – | – | – | – |
| C=C(C)[C@@H]1CC[C@]2(C)CC[C@]3(C)[C@H](CC[C@@H]4[C@@]5(C)CC[C@H](O)C(C)(C)[C@@H]5CC[C@]43C)[C@@H]12 [Lupeol, lupeol] | 154 | – | exhibiting laminin 5 productivity potentiating action | 122 | – | – | – |
| O=c1c(-c2ccc(O)cc2)coc2c([C@@H]3O[C@H](CO)[C@@H](O)[C@H](O)[C@H]3O)c(O)ccc12 [Puerarin, daidzein-8-glucoside] | – | – | little or no laminin 5 productivity potentiating action | – | – | – | – |
| O=c1c(-c2ccc(O)cc2)coc2cc(O[C@@H]3O[C@H](CO)[C@@H](O)[C@H](O)[C@H]3O)ccc12 [daidzin, daidzein-7-glucoside] | – | – | little or no laminin 5 productivity potentiating action | – | – | – | – |
| O=c1c(-c2ccc(O)c(O)c2)coc2c([C@@H]3O[C@H](CO)[C@@H](O)[C@H](O)[C@H]3O)c(O)ccc12 [Glucoside, 8-β-D-glucopyranosyl-7-hydroxy-3-(3′,4′-dihydroxyphenyl)-4H-1-benzopyran-4-one] | – | – | – | – | 93 | 95 | 99 |
| O=c1c(-c2ccc(O)cc2)coc2cc(O)ccc12 [Daidzein, 4′,7-dihydroxyisoflavone] | – | – | little or no laminin 5 productivity potentiating action | – | 93 | 99 | 74 |

From US20040202638A1, “Substance capable of potentiating laminin 5 productivity in epidermal cells and utilization thereof” (priority 2001, published 2004)
